Experimental findings from ChEMBL document CHEMBL1201862, “PubChem BioAssay data set” (2004) are described below.

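These data come from cells grown in 96-well plates and exposed to compound for 48 hours at five concentrations. Here, GI50 denotes the concentration required for 50% inhibition of growth.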 Calls of active or inactive are those of the source. Rule as the data show it: active = GI50 up to about 1.1 µM and inactive = higher. Bounds are passed on as bounds.

One may read the GI50 as the concentration giving 50% growth inhibition.

Among the test systems are EKVX; HOP-62; ACHN; HCT-116; NCI-H522; HCT-15; SNB-19; UACC-257; M14; OVCAR-4; OVCAR-3; UO-31; IGROV-1; MOLT-4; OVCAR-5.
Common to all, as to assay: DTP human tumour cell line panel, 48 h

Take `Cc1cccc(/C=N/C23CC4CC(CC(C4)C2)C3)c1`: the GI50 in the assay on EKVX was > 100 µM (inactive); with HOP-62, > 100 µM (inactive); with ACHN, > 100 µM (inactive); in the assay on HCT-116, > 100 µM (inactive); in the assay with NCI-H522, > 100 µM (inactive); with HCT-15 it was above 100 µM. Besides, the GI50 with SNB-19, in the assay with UACC-257, in the assay with M14, in the assay with OVCAR-4, in the assay with OVCAR-3 and in the assay on UO-31 was > 100 µM (inactive) throughout. The GI50 in the assay with IGROV-1, with MOLT-4 and with OVCAR-5 was > 100 µM (inactive) throughout.

For `COC(=O)/C(C)=C/[N+](=O)[O-]`, the GI50 is 15.9 µM (inactive) in the assay on EKVX; 25.4 µM (inactive) in the assay with HOP-62; 19.5 µM (inactive) in the assay on ACHN; 8.04 µM (inactive) with HCT-116; 13.5 µM in the assay with HCT-15; 17.1 µM (inactive) in the assay on SNB-19. For the same molecule, the GI50 in the assay with UACC-257 is 15.8 µM (inactive); in the assay with M14, 15.7 µM (inactive); in the assay with OVCAR-4, 17.5 µM (inactive); with OVCAR-3, 16 µM (inactive); in the assay on UO-31, 18.9 µM (inactive); in the assay on IGROV-1, 20.9 µM (inactive). Moreover, the GI50 was 11 µM (inactive) in the assay with MOLT-4 and 19.7 µM (inactive) in the assay with OVCAR-5.

`CN1CCOC(c2ccccc2)O1` (stereo unspecified): the GI50 in the assay on EKVX was > 100 µM (inactive); in the assay on HOP-62, > 100 µM (inactive); in the assay on ACHN, > 100 µM (inactive); in the assay on HCT-116, > 100 µM (inactive); in the assay with NCI-H522, > 100 µM (inactive); with HCT-15 it was above 100 µM. For the same molecule, the GI50 in the assay on SNB-19, with UACC-257, with M14, in the assay on OVCAR-4, in the assay on OVCAR-3 and in the assay with UO-31 was > 100 µM (inactive) in each case. Moreover, the GI50 with IGROV-1, in the assay on MOLT-4 and with OVCAR-5 was > 100 µM (inactive) each time.

Regarding `COc1ccc(C2COc3c(ccc(OC)c3OC)C2=O)cc1OC` (stereo unspecified), the GI50 in the assay with EKVX, in the assay with HOP-62, in the assay with ACHN, in the assay on HCT-116, in the assay on NCI-H522 and with SNB-19 was > 100 µM (inactive) throughout. Besides, the GI50 in the assay with UACC-257, in the assay on M14, with OVCAR-4, in the assay with OVCAR-3, in the assay with UO-31 and in the assay on IGROV-1 was > 100 µM (inactive) throughout. In the assay on MOLT-4, the GI50 was > 100 µM (inactive).

As for `COC[C@@H]1[C@H]2OC(C)(C)O[C@H]2C(=O)N1C(=O)c1ccc(OC)cc1`, the GI50 was > 100 µM (inactive) in the assay on EKVX; > 100 µM (inactive) with HOP-62; > 100 µM (inactive) in the assay on ACHN; > 100 µM (inactive) in the assay with HCT-116; > 71.8 µM (inactive) in the assay on NCI-H522; above 100 µM in the assay on HCT-15. In addition, the GI50 in the assay on SNB-19, in the assay with UACC-257, with M14, with OVCAR-4, with OVCAR-3 and in the assay on UO-31 was > 100 µM (inactive) each time. For the same molecule, the GI50 in the assay on IGROV-1, with MOLT-4 and in the assay with OVCAR-5 was > 100 µM (inactive) each time.

With `O=c1ccc2ccccc2c2ccccc12`, the GI50 in the assay with EKVX was 17.3 µM (inactive); in the assay with HOP-62 it was 3.24 µM (inactive); with ACHN, 3.97 µM (inactive); in the assay on HCT-116, 3.7 µM (inactive); with NCI-H522, 4.37 µM (inactive); with HCT-15, 1.87 µM. Besides, the GI50 in the assay on SNB-19 is 2.82 µM (inactive); in the assay with UACC-257, 4.82 µM (inactive); with M14, 2.42 µM (inactive); in the assay on OVCAR-4, 8.07 µM (inactive); with OVCAR-3 it was 3.4 µM (inactive); in the assay on UO-31, 3.81 µM (inactive). Moreover, the GI50 is 6.12 µM (inactive) in the assay on IGROV-1, 3.78 µM (inactive) in the assay with MOLT-4 and 2.82 µM (inactive) in the assay on OVCAR-5.

For `Cc1cccc(NC(=O)C(=O)Cc2nc3ccccc3nc2O)c1C`, the GI50 in the assay on EKVX is > 100 µM (inactive); with HOP-62, > 100 µM (inactive); in the assay on ACHN, > 100 µM (inactive); with HCT-116 it was > 100 µM (inactive); with NCI-H522 it was > 100 µM (inactive); with HCT-15, above 100 µM. The GI50 in the assay on SNB-19, in the assay with UACC-257, in the assay on M14, with OVCAR-4, with OVCAR-3 and in the assay with UO-31 was > 100 µM (inactive) each time. Besides, the GI50 with IGROV-1 and in the assay on OVCAR-5 was > 100 µM (inactive) each time.

On to `CCOC(=O)[C@@]12C(C)=CC(=O)O[C@]1(C)C[C@H]2C#N`, for which the GI50 in the assay with EKVX was > 100 µM (inactive); in the assay on HOP-62 it was > 100 µM (inactive); in the assay on ACHN it was > 100 µM (inactive); in the assay with HCT-116, > 100 µM (inactive); in the assay with HCT-15, above 100 µM; in the assay with SNB-19, > 100 µM (inactive). The GI50 with UACC-257, in the assay on M14, with OVCAR-4, with OVCAR-3, with UO-31 and in the assay on IGROV-1 was > 100 µM (inactive) throughout. Besides, the GI50 in the assay on MOLT-4 was > 100 µM (inactive).

In the case of `O=C1CC2CC=C[C@H]3c4cc5c(cc4C(=O)N1C23)OCO5` (stereo partly specified), the GI50 in the assay with EKVX was > 50 µM (inactive); in the assay on HOP-62, > 50 µM (inactive); in the assay on ACHN, > 50 µM (inactive); in the assay with HCT-116, > 50 µM (inactive); in the assay with NCI-H522, > 50 µM (inactive); in the assay with HCT-15 it was above 50 µM. The GI50 in the assay with SNB-19, in the assay with UACC-257, with M14, in the assay on OVCAR-3, with UO-31 and with IGROV-1 was > 50 µM (inactive) each time. Besides, the GI50 in the assay with MOLT-4 is > 50 µM (inactive).

As for `CN(C)CCN(C)CC1COC(C)(C)O1` (stereo unspecified), the GI50 in the assay on EKVX, in the assay with HOP-62, in the assay with ACHN, with HCT-116, with NCI-H522 and in the assay on SNB-19 was > 100 µM (inactive) in each case. Besides, the GI50 with UACC-257, in the assay on M14, in the assay on OVCAR-4, with OVCAR-3, in the assay with UO-31 and in the assay on IGROV-1 was > 100 µM (inactive) each time. Also, the GI50 in the assay on MOLT-4 and in the assay on OVCAR-5 was > 100 µM (inactive) each time.

In the case of `Nc1nc(N)c(-c2ccccc2)c(C(=O)Nc2ccc(Cl)c(Cl)c2)n1`, the GI50 in the assay with EKVX was > 100 µM (inactive); in the assay on HOP-62 it was > 100 µM (inactive); with ACHN it was > 100 µM (inactive); in the assay with HCT-116 it was > 100 µM (inactive); in the assay on HCT-15, above 100 µM; in the assay with SNB-19 it was > 100 µM (inactive). For the same molecule, the GI50 in the assay with UACC-257, in the assay with M14, in the assay with OVCAR-4, with OVCAR-3, in the assay on UO-31 and with IGROV-1 was > 100 µM (inactive) each time. Also, the GI50 in the assay with MOLT-4 and in the assay with OVCAR-5 was > 100 µM (inactive) in each case.

For the molecule `O=C1C(c2ccccc2)=C(c2ccccc2)C(c2ccc(-c3ccc(C4=C(c5ccccc5)C(=O)C(c5ccccc5)=C4c4ccccc4)cc3)cc2)=C1c1ccccc1`, the GI50 with EKVX is > 100 µM (inactive); with HOP-62, > 100 µM (inactive); with HCT-116 it was > 100 µM (inactive); in the assay with NCI-H522, > 100 µM (inactive); in the assay with HCT-15, above 100 µM; in the assay with SNB-19 it was > 100 µM (inactive). In addition, the GI50 in the assay with UACC-257, with M14, with OVCAR-4, in the assay on OVCAR-3, in the assay with UO-31 and in the assay with IGROV-1 was > 100 µM (inactive) throughout. Also, the GI50 was 77.8 µM (inactive) with MOLT-4 and > 100 µM (inactive) with OVCAR-5.

As for `O=C(N/N=C/c1cc(Cl)cc(Cl)c1O)c1ccncc1`, the GI50 was 22 µM (inactive) in the assay with EKVX; 53.2 µM (inactive) in the assay with HOP-62; 68.9 µM (inactive) in the assay with ACHN; > 100 µM (inactive) in the assay on HCT-116; > 100 µM (inactive) in the assay with NCI-H522; 29.7 µM in the assay on HCT-15. Moreover, the GI50 is > 100 µM (inactive) with SNB-19; > 100 µM (inactive) in the assay on UACC-257; > 100 µM (inactive) in the assay with M14; 32.2 µM (inactive) in the assay with OVCAR-3; 71.1 µM (inactive) in the assay with UO-31; 63.5 µM (inactive) in the assay with IGROV-1. The GI50 in the assay on MOLT-4 is 36.9 µM (inactive); in the assay with OVCAR-5 it was 39.1 µM (inactive).

In the case of `COc1cc(Br)c(CC2NCCc3cc(OC)c(OC)cc32)cc1OC` (stereo unspecified), the GI50 in the assay with EKVX was > 100 µM (inactive); in the assay with HOP-62 it was > 100 µM (inactive); in the assay with ACHN, 79.1 µM (inactive); with HCT-116, 24.4 µM (inactive); with NCI-H522, > 100 µM (inactive); in the assay with SNB-19, > 100 µM (inactive). Further, the GI50 in the assay with UACC-257 was 40.2 µM (inactive); with M14, 44.7 µM (inactive); with OVCAR-4 it was > 100 µM (inactive); in the assay on OVCAR-3, 84.9 µM (inactive); in the assay on UO-31, 25.7 µM (inactive); with MOLT-4 it was 46.6 µM (inactive). Further, the GI50 in the assay with OVCAR-5 is 40.9 µM (inactive).
